ChEMBL document CHEMBL1153839, “Pulmonary versus systemic delivery of antibiotics: comparison of vancomycin dispositions in the isolated rat lung” (Antimicrob Agents Chemother, 2007)

Key:
[1] = Drug level in Wistar rat bronchoalveolar fluid at 500 ug, administered through systemic route; assay type: ADME, tissue-based, Lung; settings: in vivo
[2] = Ratio of drug level in bronchoalveolar fluid to lung in Wistar rat at 500 ug, administered through pulmonary route under respiratory mode of 60 respirations per minute, 2 ml/kg tidal volume; assay type: ADME; settings: in vivo, other
[3] = AUC (0 to infinity) in Wistar rat lung at 500 ug, administered through systemic route under respiratory mode of 60 respirations per minute, 2 ml/kg tidal volume; assay type: ADME; parameters: dose 500 ug, time infinity
[4] = Ratio of drug level in lung to efferent fluid in Wistar rat at 500 ug, administered through systemic route under respiratory mode of 30 respirations per minute, 4 ml/kg tidal volume; assay type: ADME; settings: in vivo, other
[5] = Ratio of drug level in lung to efferent fluid in Wistar rat at 500 ug, administered through systemic route under respiratory mode of 60 respirations per minute, 2 ml/kg tidal volume; assay type: ADME; settings: in vivo, other
Lung [6] = assay: Mean transit time in Wistar rat lung at 500 ug, administered through systemic route under respiratory mode of 60 respirations per minute, 2 ml/kg tidal volume; assay type: ADME, tissue-based; settings: in vivo, other
Lung [7] = assay: Drug level in Wistar rat lung at 500 ug, administered through systemic route; assay type: ADME, tissue-based; settings: in vivo
[8] = Ratio of drug level in bronchoalveolar fluid to lung in Wistar rat at 500 ug, administered through pulmonary route under respiratory mode of 30 respirations per minute, 4 ml/kg tidal volume; assay type: ADME; settings: in vivo, inhaled_or_intranasal
[9] = Ratio of drug level in bronchoalveolar fluid to efferent fluid in Wistar rat at 500 ug, administered through pulmonary route under respiratory mode of 30 respirations per minute, 4 ml/kg tidal volume; assay type: ADME; settings: in vivo, inhaled_or_intranasal
[10] = Ratio of drug level in bronchoalveolar fluid to efferent fluid in Wistar rat at 500 ug, administered through pulmonary route under respiratory mode of 60 respirations per minute, 2 ml/kg tidal volume; assay type: ADME; settings: in vivo, inhaled_or_intranasal
[11] = Ratio of drug level in lung to efferent fluid in Wistar rat at 500 ug, administered through pulmonary route under respiratory mode of 30 respirations per minute, 4 ml/kg tidal volume; assay type: ADME; settings: in vivo, inhaled_or_intranasal
Lung [12] = assay: Mean transit time in Wistar rat lung at 500 ug, administered through systemic route under respiratory mode of 30 respirations per minute, 4 ml/kg tidal volume; assay type: ADME, tissue-based; settings: in vivo, other
[13] = AUC (0 to infinity) in Wistar rat lung at 500 ug, administered through systemic route under respiratory mode of 30 respirations per minute, 4 ml/kg tidal volume; assay type: ADME; parameters: dose 500 ug, time infinity
[14] = Ratio of drug level in lung to efferent fluid in Wistar rat at 500 ug, administered through pulmonary route under respiratory mode of 60 respirations per minute, 2 ml/kg tidal volume; assay type: ADME; settings: in vivo, inhaled_or_intranasal

In the case of `CN[C@H](CC(C)C)C(=O)N[C@H]1C(=O)N[C@@H](CC(N)=O)C(=O)N[C@H]2C(=O)N[C@H]3C(=O)N[C@H](C(=O)N[C@H](C(=O)O)c4cc(O)cc(O)c4-c4cc3ccc4O)[C@H](O)c3ccc(c(Cl)c3)Oc3cc2cc(c3O[C@@H]2O[C@H](CO)[C@@H](O)[C@H](O)[C@H]2O[C@H]2C[C@](C)(N)[C@H](O)[C@H](C)O2)Oc2ccc(cc2Cl)[C@H]1O` [VANCOMYCIN], the Drug uptake [1] is reported as 0.1 µg/g, the Ratio [2] is reported as 4.69 and the AUC(0-inf) [3] is reported as 1830 ng·h/mL. For the same molecule, the Ratio [4] was 0.5, the Ratio [5] was 0.49 and the MTT (Lung [6]) was 0.47 min. It also gave a Drug uptake (Lung [7]) of 0.11 µg/g, a Ratio [8] of 7.1 and a Ratio [9] of 17.89. For the same molecule, the Ratio [10] was over 17.89, the Ratio [11] was 9.44 and the MTT (Lung [12]) was 0.78 min. It also gave an AUC(0-inf) [13] of 2140 ng·h/mL and a Ratio [14] of over 9.44.
